Structures are written as SMILES. pIC50: −log10 of the molar value. Where two headings read alike, the source gives them in different places.

This is an account of results in paper PMC3153478, “Structural Basis for Species Specific Inhibition of 17β-Hydroxysteroid Dehydrogenase Type 1 (17β-HSD1): Computational Study and Biological Validation” (PLoS ONE, 2011).

For experiment [1], the system named is human 17β-HSD2. Also on record: method as in earlier work. Conditions: Human placental, microsomal fraction, substrate E2, 500 nM, cofactor NAD+, 1500 µM; ref literature (references indicated with the structural formulas in Fig. 3); read-out: Human IC50 17ß-HSD2; cited from earlier work.
The target of experiment [2] is T1, marmoset 17β-HSD1 (Callithrix jacchus, UniProt Q9GME2).
T1 construct: For the partial purification of 17β-HSD1, the cytosolic fraction was precipitated with ammonium sulfate; from tissue; host or cells: marmoset placenta, cytosolic fraction, ammonium sulfate precipitate
T1 sequence (Q9GME2 1-314): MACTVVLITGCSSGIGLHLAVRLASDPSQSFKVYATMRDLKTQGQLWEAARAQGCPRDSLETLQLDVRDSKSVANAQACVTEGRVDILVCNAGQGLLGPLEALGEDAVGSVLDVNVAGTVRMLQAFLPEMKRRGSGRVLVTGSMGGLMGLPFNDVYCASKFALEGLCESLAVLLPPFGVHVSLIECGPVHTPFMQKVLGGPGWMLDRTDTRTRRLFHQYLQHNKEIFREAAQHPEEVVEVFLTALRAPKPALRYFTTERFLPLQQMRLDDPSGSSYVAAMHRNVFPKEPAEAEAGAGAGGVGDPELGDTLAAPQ
The experiment in a line: Inhibition of marmoset 17β-HSD1 (placental cytosolic fraction, tritiated E1, HPLC). It is filed as biochemical, marmoset monkey (callithrix jacchus). The conditions noted are these: for pIC50: read-out: Marmoset IC50 17ß-HSD1. The method, then: (§1) Marmoset placental tissue was used as enzyme source and the proteins were partially purified following a described procedure. Tritiated E1 was incubated with 17β-HSD1, cofactor and inhibitor. The separation of substrate and product was performed by HPLC. In an assay similar to the 17β-HSD1 test, marmoset placental microsomes containing 17β-HSD2 were incubated with tritiated E2 in the presence of NAD^+ and inhibitor. Labelled product was quantified after HPLC separation.
(§2) [2, 4, 6, 7-^3H]-E1 and [2, 4, 6, 7-^3H]-E2 were bought from Perkin Elmer, Boston. Quickszint Flow 302 scintillator fluid was bought from Zinsser Analytic, Frankfurt. Marmoset 17β-HSD1 and 17β-HSD2 were obtained from marmoset placenta according to previously described procedures. Fresh marmoset placenta was homogenized and cytosolic and microsomal fractions were separated by centrifugation. For the partial purification of 17β-HSD1, the cytosolic fraction was precipitated with ammonium sulfate. 17β-HSD2 was obtained from the microsomal fraction.
Inhibitory activities were evaluated by an established method with minor modifications. Briefly, the enzyme preparation was incubated with NADH [500 µM] in the presence of potential inhibitors at 37°C in a phosphate buffer (50 mM) supplemented with 20% of glycerol and EDTA (1 mM). Inhibitor stock solutions were prepared in DMSO. The final concentration of DMSO was adjusted to 1% in all samples. The enzymatic reaction was started by addition of a mixture of unlabelled- and [2, 4, 6, 7-^3H]-E1 (final concentration: 500 nM, 0.15 µCi). After 10 min, the reaction was stopped by the addition of HgCl2 (10 mM) and the mixture was extracted with diethylether. After evaporation, the steroids were dissolved in acetonitrile. E1 and E2 were separated using acetonitrile/water (45∶55) as mobile phase in a C18 reverse phase chromatography column (Nucleodur C18 Gravity, 3 µm, Macherey-Nagel, Düren) connected to an HPLC-system (Agilent 1200 Series, Agilent Technologies, Waldbronn). Detection and quantification of the steroids were performed using a radioflow detector (Agilent 1200 Series, Agilent Technologies, Waldbronn). The conversion rate was calculated after analysis of the resulting chromatograms according to the following equation: [drawing 1] . Each value was calculated from at least three independent experiments.

In experiment [3] the test system is human 17β-HSD1. Also noted: method as in earlier work. Conditions: Human placental, cytosolic fraction, substrate E1, 500 nM, cofactor NADH, 500 µM; ref literature (references indicated with the structural formulas in Fig. 3); read-out: Human IC50 17ß-HSD1; cited from earlier work.
The target in experiment [4] is marmoset 17β-HSD2 (Callithrix jacchus, UniProt U3BEV1). The experiment in a line: Inhibition of marmoset 17β-HSD2 (placental microsomes, tritiated E2, HPLC). It is filed as biochemical, marmoset monkey (callithrix jacchus). The conditions noted are these: Logit transformed values calculated from % inhibition at 50 nM inhibitor concentration (trend for <30% or >70%), placental microsomal fraction, substrate E2 500 nM, NAD+ 1500 µM; for pIC50: read-out: Marmoset IC50 17ß-HSD2. As for the experimental part: as §1, §2
The 17β-HSD2 inhibition assay was performed similarly to the 17β-HSD1 procedure. The microsomal fraction was incubated with NAD^+ [1500 µM], test compound and a mixture of unlabelled- and [2, 4, 6, 7-^3H]-E2 (final concentration: 500 nM, 0.11 µCi) for 20 min at 37°C. Further treatment of the samples and HPLC separation was carried out as mentioned above. The conversion rate was calculated after analysis of the resulting chromatograms according to the following equation: [drawing 2] .

Setting [5] is: Logit transformed values calculated from % inhibition, inhibitor concentration: 5 nM, placental cytosolic fraction, substrate E1 500 nM, NADH 500 µM.
Where [6] appears, read: Logit transformed values calculated from % inhibition at 50 nM inhibitor concentration (trend for <30% or >70%), placental cytosolic fraction, substrate E1 500 nM, NADH 500 µM.

Chain of marmoset 17β-HSD2 (U3BEV1 entry or part of it): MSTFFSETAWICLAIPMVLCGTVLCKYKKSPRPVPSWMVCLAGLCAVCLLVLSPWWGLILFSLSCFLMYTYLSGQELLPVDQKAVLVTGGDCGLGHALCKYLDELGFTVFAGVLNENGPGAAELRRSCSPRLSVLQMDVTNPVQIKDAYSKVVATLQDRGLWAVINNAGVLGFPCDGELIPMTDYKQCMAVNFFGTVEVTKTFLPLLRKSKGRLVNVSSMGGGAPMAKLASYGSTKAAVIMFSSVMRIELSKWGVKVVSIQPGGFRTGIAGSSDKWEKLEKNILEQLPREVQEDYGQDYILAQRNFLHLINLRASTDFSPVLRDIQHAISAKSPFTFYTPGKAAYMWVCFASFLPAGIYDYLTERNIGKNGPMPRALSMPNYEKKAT

On to `Oc1cccc(-c2ccc(-c3ccc(O)c(F)c3)s2)c1` [Compound 1], for which the pIC50 in experiment [1] was 6.03; in experiment [2] (setting [5]), > 8.30; in experiment [3], 8.10; in experiment [4] it was < 7.30.

For `Oc1ccc(-c2cnc(-c3cccc(O)c3)s2)cc1` [Compound 2], the pIC50 in experiment [1] was 5.40; in experiment [2] (setting [6]) it was 6.99; in experiment [3] it was 7.30; in experiment [4], < 7.30.

For the molecule `Oc1ccc(-c2ccc(-c3cccc(O)c3)s2)cc1` [Compound 3], the negative-log IC50 (pIC50) in experiment [1] was 5.71; in experiment [2] (setting [6]), 7.51; in experiment [3], 7.16; in experiment [4], < 7.30.

As to `Cc1cc(-c2ccc(-c3cccc(O)c3)s2)ccc1O` [Compound 4], the negative-log IC50 (pIC50) in experiment [1] was 5.71; in experiment [2] (setting [6]) it was > 7.30; in experiment [3], 7.34; in experiment [4], < 7.30.

Take `Cc1cc(-c2cnc(-c3cccc(O)c3)s2)ccc1O` [Compound 5]: the pIC50 in experiment [1] was 5.69; in experiment [2] (setting [6]), > 7.30; in experiment [3] it was 6.84; in experiment [4] it was < 7.30.

Take `Oc1ccc(-c2ccc(-c3cc(O)cc(F)c3)s2)cc1` [Compound 6]: the pIC50 was 6.33 in experiment [1], > 8.30 in experiment [2] (setting [5]), 7.38 in experiment [3] and 7.07 in experiment [4].

Consider `Oc1cc(F)cc(-c2ccc(-c3ccc(O)c(F)c3)s2)c1` [Compound 7], for which the pIC50 in experiment [1] was 6.66; in experiment [2] (setting [5]) it was > 8.30; in experiment [3], 7.77; in experiment [4], 7.37.

For `O=C(c1cccc(O)c1)c1ccc(-c2ccc(O)cc2)s1` [Compound 12], the pIC50 in experiment [1] was 6.32; in experiment [2] (setting [6]) it was > 7.30; in experiment [3], 7.48; in experiment [4], 7.37. For the same molecule, the “Inhibitory potency toward marmoset 17β-HSD1 compared to the human enzyme” value in experiment [2] (comparison in words, marmoset vs human 17β-HSD1) is “Comparable inhibition data”.

Consider `Oc1cccc(-c2ccc3cc(O)ccc3c2)c1` [Compound 14], for which the negative logarithm of the IC50 (pIC50) in experiment [1] is 5.25; in experiment [2], < 7.30; in experiment [3], 6.94.

On to `Oc1cccc(-c2ccc3c(-c4cccc(O)c4)c(O)ccc3c2)c1` [Compound 15], for which the pIC50 was 6.02 in experiment [1], 7.49 in experiment [2] (setting [6]), 7.44 in experiment [3] and < 7.30 in experiment [4].

Consider `Oc1cccc(-c2ccc3c(-c4cccnc4)c(O)ccc3c2)c1` [Compound 16], for which the pIC50 in experiment [1] is 5.94; in experiment [2] (setting [6]), < 7.30; in experiment [3], 7.59; in experiment [4], < 7.30.

In the case of `Oc1cccc(-c2ccc3c(-c4ccccc4)c(O)ccc3c2)c1` [Compound 17], the pIC50 is 6.27 in experiment [1], 7.28 in experiment [2] (setting [6]), 7.70 in experiment [3] and < 7.30 in experiment [4].

For `Nc1cccc(-c2c(O)ccc3cc(-c4cccc(O)c4)ccc23)c1` [Compound 18], the “Marmoset IC50 17ß-HSD1” value in experiment [2] (setting [6]) is on record as “n.i”. Besides, the pIC50 in experiment [3] is 7.28; in experiment [4], < 7.30.

Regarding `CS(=O)(=O)Nc1cccc(-c2c(O)ccc3cc(-c4cccc(O)c4)ccc23)c1` [Compound 19], the pIC50 in experiment [1] is 6.39; in experiment [2] (setting [6]), < 7.30; in experiment [3], 7.82; in experiment [4], < 7.30.

Turning to `CC(=O)Nc1cccc(-c2c(O)ccc3cc(-c4cccc(O)c4)ccc23)c1` [Compound 20], the pIC50 in experiment [1] was 5.91; in experiment [2] (setting [6]) it was < 7.30; in experiment [3], 7.08. Also, in experiment [4], the “Marmoset IC50 17ß-HSD2” value is listed as “n.i”.
